Source: ChEMBL document CHEMBL1201862, “PubChem BioAssay data set” (2004)
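How tested: cells in 96-well plates exposed to compound for 48 hours at five concentrations. At the GI50, growth is halved.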 The source made the active and inactive calls. No stated cut-off is given here; in the data, active = GI50 up to about 1.1 µM and inactive = higher.

What was measured:
Experiment in all cases: NCI tumour cell line growth inhibition, 48 h
A498 = test system: A498
ACHN = test system: ACHN
BT-549 = test system: BT-549
CCRF-CEM = test system: CCRF-CEM
DU-145 = test system: DU-145
EKVX = test system: EKVX
HL-60 = test system: HL-60
HOP-92 = test system: HOP-92
Hs-578T = test system: Hs-578T
KM12 = test system: KM12
M14 = test system: M14
MDA-N = test system: MDA-N
MOLT-4 = test system: MOLT-4
NCI-H460 = test system: NCI-H460
OVCAR-4 = test system: OVCAR-4
PC-3 = test system: PC-3
SF-268 = test system: SF-268
SF-295 = test system: SF-295
SK-MEL-2 = test system: SK-MEL-2
UO-31 = test system: UO-31

| Structure (SMILES) | GI50 (A498) | GI50 (ACHN) | GI50 (BT-549) | GI50 (CCRF-CEM) | GI50 (DU-145) | GI50 (EKVX) | GI50 (HL-60) | GI50 (HOP-92) | GI50 (Hs-578T) | GI50 (KM12) | GI50 (M14) | GI50 (MDA-N) | GI50 (MOLT-4) | GI50 (NCI-H460) | GI50 (OVCAR-4) | GI50 (PC-3) | GI50 (SF-268) | GI50 (SF-295) | GI50 (SK-MEL-2) | GI50 (UO-31) |
| --- | --- | --- | --- | --- | --- | --- | --- | --- | --- | --- | --- | --- | --- | --- | --- | --- | --- | --- | --- | --- |
| N#CC(C#N)=NNc1ccc2cn[nH]c2c1 | > 100 µM (inactive) | 33.1 µM (inactive) | > 100 µM (inactive) | 13.6 µM (inactive) | 29 µM (inactive) | 47.3 µM (inactive) | 18.6 µM (inactive) | 37.1 µM (inactive) | 24.8 µM (inactive) | > 100 µM (inactive) | 35.6 µM (inactive) | 43.9 µM (inactive) | 21.5 µM (inactive) | 57.3 µM (inactive) | 30.7 µM (inactive) | > 100 µM (inactive) | 36.3 µM (inactive) | > 100 µM (inactive) | > 100 µM (inactive) | 14 µM (inactive) |
| CCOC(=O)c1oc2ccc([N+](=O)[O-])c3c2c1CCC3 | 32.7 µM (inactive) | 58.3 µM (inactive) | 46.5 µM (inactive) | > 95.1 µM (inactive) | > 100 µM (inactive) | 73.6 µM (inactive) | > 93.8 µM (inactive) | 17.4 µM (inactive) | 29.2 µM (inactive) | > 79.3 µM (inactive) | > 86.3 µM (inactive) | > 100 µM (inactive) | > 100 µM (inactive) | > 100 µM (inactive) | > 100 µM (inactive) | > 100 µM (inactive) | 27.2 µM (inactive) | 23.9 µM (inactive) | 47.1 µM (inactive) | 66.7 µM (inactive) |
| CC/C(=N/O)c1ccc(Br)s1 | > 100 µM (inactive) | 92 µM (inactive) | > 100 µM (inactive) | 41.1 µM (inactive) | > 100 µM (inactive) | 5.61 µM (inactive) | 28.6 µM (inactive) | 40.3 µM (inactive) | 95.1 µM (inactive) | > 100 µM (inactive) | > 100 µM (inactive) | > 100 µM (inactive) | 44.7 µM (inactive) | > 100 µM (inactive) | > 100 µM (inactive) | > 100 µM (inactive) | > 100 µM (inactive) | > 100 µM (inactive) | > 100 µM (inactive) | 58.6 µM (inactive) |
| O=C1SC(SCc2ccccc2)=NC12CC2c1ccccc1 (stereo not given) | 25.5 µM (inactive) | 17.9 µM (inactive) | 20.2 µM (inactive) | 2.93 µM (inactive) | 29 µM (inactive) | 20.2 µM (inactive) | 3.56 µM (inactive) | 17.1 µM (inactive) | 24.3 µM (inactive) | 17.7 µM (inactive) | 17.4 µM (inactive) | 20.9 µM (inactive) | 1.34 µM (inactive) | 18.7 µM (inactive) | 16 µM (inactive) | 23.3 µM (inactive) | 27 µM (inactive) | 19.7 µM (inactive) | 18.7 µM (inactive) | 19.5 µM (inactive) |
| Cc1ccc([N+](=O)[O-])cc1S(=O)(=O)Nc1ccc(C(=O)/C=C/c2cccs2)cc1 | 15.3 µM (inactive) | 29.4 µM (inactive) | 18.7 µM (inactive) | 0.271 µM (active) | 23.3 µM (inactive) | 20.1 µM (inactive) | 28.3 µM (inactive) | 27.9 µM (inactive) | 36.3 µM (inactive) | 16.6 µM (inactive) | 20.1 µM (inactive) | 25.2 µM (inactive) | 22.2 µM (inactive) | 51.5 µM (inactive) | 22.5 µM (inactive) | 21.1 µM (inactive) | 32 µM (inactive) | 32.7 µM (inactive) | 20.6 µM (inactive) | 20 µM (inactive) |
| COc1ccc(-c2nc3ccc(C)cc3o2)c(OC)c1 | 18.6 µM (inactive) | 33 µM (inactive) | 23.7 µM (inactive) | 24.1 µM (inactive) | 25.8 µM (inactive) | 19.6 µM (inactive) | 20.4 µM (inactive) | 25.4 µM (inactive) | 25.8 µM (inactive) | 19.2 µM (inactive) | 18.2 µM (inactive) | 23.9 µM (inactive) | 11.3 µM (inactive) | 2.93 µM (inactive) | 26.9 µM (inactive) | 24.3 µM (inactive) | 28.6 µM (inactive) | 19.9 µM (inactive) | 24.6 µM (inactive) | 24 µM (inactive) |
